Results published in US7511144B2, “Reverse hydroxamic acid derivatives” (Kaken Pharmaceutical Co., Ltd., priority 2001, dated 2009).
Where two headings read alike, the source gives them in different places.

Assays:
Type in all cases: biochemical
[1] = biological target: T1, Human MMP8 (Homo sapiens, UniProt P22894); assay: MMP8 inhibition experiment; conditions: concentration required for 50% inhibition of enzyme activity; read-out: IC50 value MMP-8
T1 construct: purchased Calbiochem 444229
Protocol: (§1) MMP inhibition experiment may be carried out using a fluorescent synthetic substrate according to, for example, the methods of Bickett et al. (D. Mark Bickett et al., Anal. Biochem., 1993, 212, 58-64) and Nagase et al. (H. Nagase et al., J. Biol. Chem., 1994, 269, 20952-20957). The methods of inhibition experiments carried out for various MMPs are described below.
Human MMP8 (Calbiochem #444229) in amount of 90 μL (30 ng) was activated by mixing with 10 μL of 10 mM APMA, followed by reaction for 1 hour at 37° C. This enzyme solution in amount of 10 μL was diluted to 90 μL with the assay buffer A, which was added to 90 μL of […] fluorescent substrate (MOCAc-Pro-Leu-Gly-Leu-A2pr(Dnp)-Ala-Arg-NH2, Peptide Institute, Inc., #3163-v) prepared in the assay buffer B, followed by reaction for 5 hours at 37° C.

[2] = biological target: T2, Human MMP1 (Homo sapiens, UniProt P03956); assay: MMP1 inhibition experiment; conditions: read-out: IC50 value MMP-1
T2 construct: purchased Calbiochem 444208
T2 sequence (P03956 100-469): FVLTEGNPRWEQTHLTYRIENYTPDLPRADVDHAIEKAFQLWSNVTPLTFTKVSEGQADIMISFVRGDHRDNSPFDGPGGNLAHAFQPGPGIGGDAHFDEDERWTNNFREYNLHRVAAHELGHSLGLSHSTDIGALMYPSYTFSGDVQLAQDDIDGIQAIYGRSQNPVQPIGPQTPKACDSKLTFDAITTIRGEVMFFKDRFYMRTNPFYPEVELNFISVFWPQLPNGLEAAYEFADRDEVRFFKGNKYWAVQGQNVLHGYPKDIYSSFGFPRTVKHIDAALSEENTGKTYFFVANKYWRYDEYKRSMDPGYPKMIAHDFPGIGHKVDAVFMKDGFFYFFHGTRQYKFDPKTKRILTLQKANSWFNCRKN

[3] = biological target: T3, Human MMP14 (Homo sapiens, UniProt P50281); assay: MMP14 inhibition experiment; conditions: concentration required for 50% inhibition of enzyme activity; read-out: IC50 value MMP-14
T3 construct: purchased Biogenesis or Calbiochem 5980-1461 or 475935
Protocol: as §1
Human MMP14 (Biogenesis #5980-1461 or Calbiochem #475935) in amount of 90 μL (4 ng) prepared in the assay buffer A was added to 90 μL of 20 μM fluorescent substrate (Dnp-Pro-Cha-Gly-Cys(Me)-His-Ala-Lys(Nma)-NH2) prepared in the assay buffer B, followed by reaction for 5 hours at 37° C.

[4] = biological target: T4, Human MMP9 (Homo sapiens, UniProt P14780); assay: MMP9 inhibition experiment; conditions: read-out: IC50 value MMP-9
T4 construct: purchased Calbiochem 444231
T4 sequence (P14780 107-707 limits assumed): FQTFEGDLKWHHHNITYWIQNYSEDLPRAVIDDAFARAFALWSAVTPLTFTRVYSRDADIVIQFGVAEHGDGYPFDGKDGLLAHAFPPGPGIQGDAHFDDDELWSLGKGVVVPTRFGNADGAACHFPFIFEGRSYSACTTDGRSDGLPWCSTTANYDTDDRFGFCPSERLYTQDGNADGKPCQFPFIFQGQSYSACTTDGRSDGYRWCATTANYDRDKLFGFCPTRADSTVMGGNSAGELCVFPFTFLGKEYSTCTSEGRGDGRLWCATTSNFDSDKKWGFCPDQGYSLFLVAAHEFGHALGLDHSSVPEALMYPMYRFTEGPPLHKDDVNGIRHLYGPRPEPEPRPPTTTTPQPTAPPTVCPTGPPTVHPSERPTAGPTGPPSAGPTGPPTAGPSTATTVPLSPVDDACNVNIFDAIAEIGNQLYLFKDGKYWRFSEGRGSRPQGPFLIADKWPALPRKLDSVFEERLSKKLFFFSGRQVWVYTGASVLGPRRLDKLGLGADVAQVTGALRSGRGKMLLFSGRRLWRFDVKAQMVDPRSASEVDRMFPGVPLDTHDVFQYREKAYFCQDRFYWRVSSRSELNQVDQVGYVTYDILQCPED

[5] = biological target: T5, Human MMP3 (Homo sapiens, UniProt P08254); assay: MMP3 inhibition experiment; conditions: concentration required for 50% inhibition of enzyme activity; read-out: IC50 value MMP-3
T5 construct: purchased Calbiochem 444217
T5 sequence (P08254 100-272 limits assumed): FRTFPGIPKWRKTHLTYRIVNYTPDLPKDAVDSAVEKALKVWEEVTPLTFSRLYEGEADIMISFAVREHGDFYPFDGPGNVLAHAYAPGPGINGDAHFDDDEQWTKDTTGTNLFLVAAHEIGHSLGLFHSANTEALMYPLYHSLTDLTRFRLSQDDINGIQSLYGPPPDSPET
Protocol: as §1
Human MMP3 (Calbiochem #444217) in 90 μL (5 ng) prepared in the assay buffer A was added to 90 μL of 20 μM fluorescent substrate NFF-3(MOCAc-Arg-Pro-Lys-Pro-Val-Glu-Nva-Trp-Arg-Lys(Dnp)-NH2, Peptide Institute, Inc., #3168-v) prepared in the assay buffer B, followed by reaction for 5 hours at 37° C.

[6] = biological target: T6, Human MMP13 (Homo sapiens, UniProt P45452); assay: MMP13 inhibition experiment; conditions: concentration required for 50% inhibition of enzyme activity; read-out: IC50 value MMP-13
T6 construct: purchased Chemicon CC068

[7] = biological target: T7, Human MMP2 (Homo sapiens, UniProt P08253); assay: MMP2 inhibition experiment; conditions: concentration required for 50% inhibition of enzyme activity; read-out: IC50 value MMP-2
T7 construct: purchased Calbiochem 444213
T7 sequence (P08253 110-660): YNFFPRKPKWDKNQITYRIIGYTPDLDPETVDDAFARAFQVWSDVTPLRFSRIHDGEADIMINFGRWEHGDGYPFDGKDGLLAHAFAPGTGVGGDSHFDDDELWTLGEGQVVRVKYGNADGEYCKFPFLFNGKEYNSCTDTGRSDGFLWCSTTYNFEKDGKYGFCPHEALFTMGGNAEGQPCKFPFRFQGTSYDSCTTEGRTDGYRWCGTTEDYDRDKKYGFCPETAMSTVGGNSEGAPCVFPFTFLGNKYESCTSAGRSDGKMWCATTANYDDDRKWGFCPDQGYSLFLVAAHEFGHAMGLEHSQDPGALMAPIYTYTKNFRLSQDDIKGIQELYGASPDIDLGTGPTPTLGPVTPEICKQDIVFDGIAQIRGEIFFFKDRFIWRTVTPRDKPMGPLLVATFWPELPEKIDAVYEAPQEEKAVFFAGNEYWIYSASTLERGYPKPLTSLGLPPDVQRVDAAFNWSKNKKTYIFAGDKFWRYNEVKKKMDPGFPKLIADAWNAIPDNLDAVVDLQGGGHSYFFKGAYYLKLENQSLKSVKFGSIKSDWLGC

[8] = biological target: T8, Human MMP17 (Homo sapiens, UniProt Q9ULZ9); assay: MMP17 inhibition test; conditions: concentration required for 50% inhibition of enzyme activity; read-out: IC50 value MMP-17
T8 construct: purchased Calbiochem 475940
T8 sequence (Q9ULZ9 126-300 limits assumed): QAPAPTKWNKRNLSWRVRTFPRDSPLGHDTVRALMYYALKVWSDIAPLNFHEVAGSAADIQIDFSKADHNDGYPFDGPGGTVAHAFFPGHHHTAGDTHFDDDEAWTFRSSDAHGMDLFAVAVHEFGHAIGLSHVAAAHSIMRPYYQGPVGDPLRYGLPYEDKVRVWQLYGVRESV

[9] = biological target: T9, TACE (Homo sapiens, UniProt P78536); assay: TACE inhibition experiment (in vitro)
T9 construct: made in house; host or cells: mammalian cells or insect cells
T9 sequence (P78536 215-824): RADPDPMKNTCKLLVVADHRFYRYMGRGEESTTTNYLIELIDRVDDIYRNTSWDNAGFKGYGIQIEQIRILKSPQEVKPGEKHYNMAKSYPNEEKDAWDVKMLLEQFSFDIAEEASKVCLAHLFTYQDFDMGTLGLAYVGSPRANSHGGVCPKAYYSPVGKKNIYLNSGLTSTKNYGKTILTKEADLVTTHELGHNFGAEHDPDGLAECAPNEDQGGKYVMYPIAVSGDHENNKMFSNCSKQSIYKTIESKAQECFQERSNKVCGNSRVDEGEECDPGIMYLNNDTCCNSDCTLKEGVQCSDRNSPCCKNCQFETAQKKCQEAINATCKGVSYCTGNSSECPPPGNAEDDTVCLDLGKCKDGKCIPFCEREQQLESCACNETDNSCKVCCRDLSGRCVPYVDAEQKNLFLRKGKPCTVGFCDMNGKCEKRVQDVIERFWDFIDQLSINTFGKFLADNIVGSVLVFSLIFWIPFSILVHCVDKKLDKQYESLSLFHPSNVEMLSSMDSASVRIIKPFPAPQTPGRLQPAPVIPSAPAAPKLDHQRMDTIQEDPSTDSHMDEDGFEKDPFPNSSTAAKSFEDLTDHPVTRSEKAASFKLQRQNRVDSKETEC

[10] = concentration required for 50% inhibition of enzyme activity

T1 sequence (P22894 101-467): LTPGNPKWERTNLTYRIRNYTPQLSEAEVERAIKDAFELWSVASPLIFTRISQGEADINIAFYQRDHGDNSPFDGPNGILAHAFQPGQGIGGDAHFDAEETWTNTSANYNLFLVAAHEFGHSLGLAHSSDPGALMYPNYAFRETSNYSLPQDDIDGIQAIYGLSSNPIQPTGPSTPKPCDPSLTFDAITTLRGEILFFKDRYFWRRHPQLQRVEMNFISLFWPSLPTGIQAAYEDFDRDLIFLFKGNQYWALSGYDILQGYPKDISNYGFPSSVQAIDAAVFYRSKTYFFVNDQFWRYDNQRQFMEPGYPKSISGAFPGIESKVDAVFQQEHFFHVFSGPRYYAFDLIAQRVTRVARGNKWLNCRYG

IC50 [1] [µM] | IC50 [2] [µM] | IC50 [3] [µM] | IC50 [4, 10] [µM] | IC50 [5] [µM] | IC50 [6] [µM] | IC50 [7] [µM] | IC50 [8] [µM] | IC50 [9] [µM] | IC50 [4] [µM] | IC50 [2, 10] [µM] | IC50 [9, 10] [µM] | Compound
8 | 50 | 30 |  |  |  |  |  |  |  |  |  | Cc1cc(COc2ccc(S(=O)(=O)CC(CC3CCC(=NO)CC3)N(O)C=O)cc2)c2ccccc2n1 (stereo not drawn) [Example I-27]
37.5 | > 100 | 70 | 53 | 5.5 | 25 | 60 | 3 |  |  |  |  | Cc1cc(COc2ccc(S(=O)(=O)CC(C=C3CCOCC3)N(O)C=O)cc2)c2ccccc2n1 (stereo not drawn) [Example I-9, N-Hydroxy-N-{2-[4-(2-methylquinolin-4-ylmethoxy)benzenesulfonyl]-1-(tetrahydropyran-4-ylidenemethyl)ethyl}formamide]
> 100 | > 100 | 90 |  | 78 | 28 | 6.6 | 42 | 0.55 |  |  |  | O=CN(O)C(C=C1CCC(=O)CC1)CS(=O)(=O)c1ccc(OCc2ccc3ccccc3n2)cc1 (stereo not drawn) [Example I-84]
 | > 100 | > 100 |  | 12 | 70 | > 100 | 6.3 | 0.31 | > 100 |  |  | CC(=O)N(O)C(C=C1CCSCC1)CS(=O)(=O)c1ccc(OCc2cc(C)nc3ccccc23)cc1 (stereo not drawn) [Example I-126, N-hydroxy-N-{2-[4-(2-methylquinolin-4-ylmethoxy)benzenesulfonyl]-1-(tetrahydrothipyran-4-ylidenemethyl)ethyl}acetamide]
 | 60 | 33 |  | 15 | 12 | 10 | 20 | 0.3 | 30 |  |  | COc1cc(C)cc(COc2ccc(S(=O)(=O)CC(CC3CCC4(CC3)OCCO4)N(O)C=O)cc2)c1 (stereo not drawn) [Example I-93]
 | 40 | 20 |  | 7 | 3 | 2.3 | 5 | 0.12 | 20 |  |  | Cc1cc(Cl)cc(COc2ccc(S(=O)(=O)CC(CC3CCC(=O)CC3)N(O)C=O)cc2)c1 (stereo not drawn) [Example I-101]
 | 60 | 33 |  | 30 | 25 | 38 | 40 | 0.5 | 38 |  |  | Cc1cc(Cl)cc(COc2ccc(S(=O)(=O)CC(C=C3CCC4(CC3)OCCO4)N(O)C=O)cc2)c1 (stereo not drawn) [Example I-103]
> 100 |  | > 100 | > 100 | > 100 | > 100 | > 100 | 40 |  |  | > 100 |  | Cc1cc(COc2ccc(S(=O)(=O)CC(C=C3CCOCC3)N(O)C=O)cc2)c2ccccc2n1 (single isomer, unassigned) [Example I-34, N-hydroxy-N-{2-[4-(2-methylquinolin-4-ylmethoxy)benzenesulfonyl]-1-(tetrahydropyran-4-ylidenemethyl)ethyl}formamide]
 | > 100 | > 100 |  | > 100 | > 100 | > 100 | > 100 | 0.63 | > 100 |  |  | Cc1cc(COc2ccc(S(=O)(=O)CC(C=C3CCSCC3)N(O)C(N)=O)cc2)c2ccccc2n1 (stereo not drawn) [Example I-125, 1-hydroxy-1-{2-[4-(2-methylquinolin-4-ylmethoxy)benzenesulfonyl]-1-(tetrahydrothiopyran-4-ylidenemethyl)ethyl}urea]
 | 90 | 40 |  | 21 | 20 | 23 | 22 | 0.08 | 40 |  |  | COc1cc(C)cc(COc2ccc(S(=O)(=O)CC(C=C3CCC(=O)CC3)N(O)C=O)cc2)c1 (stereo not drawn) [Example I-94]
 | 40 | 31 |  | 0.8 | 6 | 10 | 1.6 | 0.005 | 40 |  |  | Cc1ccc2nc(C)cc(COc3ccc(S(=O)(=O)CC(CC4CCC(=NO)CC4)N(O)C=O)cc3)c2c1 (stereo not drawn) [Example I-76]
 | 45 | 35 | 28 | 2 | 7 | 30 | 0.6 |  |  |  | 0.02 | Cc1cc(COc2ccc(S(=O)(=O)CC(C3CCC(=O)CC3)N(O)C=O)cc2)c2ccccc2n1 (stereo not drawn) [Example I-11, N-Hydroxy-N-{2-[4-(2-methylquinolin-4-ylmethoxy)benzenesulfonyl]-1-(4-oxocyclohexyl)ethyl}formamide]
18 | > 100 |  |  | 1.7 | 25 | 28 | 0.9 | 0.026 | > 100 |  |  | CC(=O)N1CCCC(C(CS(=O)(=O)c2ccc(OCc3cc(C)nc4ccccc34)cc2)N(O)C=O)C1 (stereo not drawn) [Example I-133]
 | > 100 | > 100 |  | 20 | 70 | > 100 | 7 | 0.0063 | > 100 |  |  | Cc1cc(COc2ccc(S(=O)(=O)CC(C(Cl)=C3CCOCC3)N(O)C=O)cc2)c2ccccc2n1 (stereo not drawn) [Example I-19]
 | > 100 | > 100 |  | > 100 | > 100 | > 100 | > 100 | 1.5 | > 100 |  |  | COc1cc(C)cc(COc2ccc(S(=O)(=O)CC(C=C3CCC4(CC3)OCCO4)N(O)C=O)cc2)c1 (stereo not drawn) [Example I-95]
 | 50 | 7 |  | 1.2 | 2 | 2 | 1.6 | 0.08 | 20 |  |  | Cc1cc(Cl)cc(COc2ccc(S(=O)(=O)CC(C3CCC4(CC3)OCCO4)N(O)C=O)cc2)c1 (stereo not drawn) [Example I-98]
